Patent US20150044316A1, “METHOD FOR PREPARING A PURIFIED EXTRACT OF LONICERA JAPONICA THUNBERG AND THE COMPOSITION COMPRISING THE SAME FOR PREVENTING AND TREATING SEPSIS AND SEPTIC SHOCK” (Huons Co., Ltd., priority 2012, published 2015)

System: severe sepsis CLP model
Conditions: severe sepsis CLP mice
Method: To assess the treating activity of the combination of the purified extract prepared in the Examples with antibiotics on severe sepsis, following experiment was performed by using severe sepsis CLP model according to the modified procedure disclosed in the procedure (Daniel Rittirsch, et al. Immuodesign of Experimental sepsis by cecal ligation and puncture. Nature Protocols, Vol. 4(1), pp 31-36, 2009).
Anesthetic(ketamine hydrochloride, 100 mg/kg, Yuhan Pharm. Co.) was intraperitoneally injected to the mice (ICR female, 23-25 g, 8 weeks-old, www.dhbiolink.com) and sepsis was induced to the mice using by CLP (Cecal ligation and puncture). Cavus abdominis medians was dissected and cecum was exposed to ligate the distal ileocecal valve by silk suture (medical suture thread No. 1 & No. 2, www. lead-care.com), Two-holes were made at the cecum by a thread so as to exude the certain amount of fecal material. The cecum was put into the abdominal cavity together with fecal material and physiological saline solution was subcutaneously injected thereto to induce sepsis.
In particular, the suturing position of the distal ileocecal valve was changed and the number of puncture was more than 2 to increase the amount of fecal material in this experiment in order to inducing severe sepsis CLP model.

[1] = imipenem 25 mg/kg, HS-23 40 mg/kg

C[C@@H](O)[C@H]1C(=O)N2C(C(=O)O)=C(SCCN=CN)C[C@H]12 [Imipenem, imipenem]
survival rate at 1st day after the CLP (imipenem 25 mg/kg every 12 hours for 4 days, HS-23 40 mg/kg i.v.): 83% | final survival rate at 10th days [1]: 33% | survival rate at 2nd day after the CLP [1]: 58% | survival rate at 3rd day after the CLP [1]: 50% | survival rate at 4th day to 10th day after the CLP [1]: 42%
